{"source": "paper PMC4598813", "about": "(Scientific Reports, 2015)", "key": {"ScN2a cells": {"system": "ScN2a cells", "conditions": "mouse"}, "PrP^Sc in ScN2a cells": {"system": "PrP^Sc in ScN2a cells", "assay_type": "cell-based, mouse"}, "L2-2B1 cells": {"system": "L2-2B1 cells", "conditions": "mouse"}, "total PrP in ScN2a cells": {"system": "total PrP in ScN2a cells", "assay_type": "cell-based, mouse"}, "PrP^Sc formation": {"system": "PrP^Sc formation", "conditions": "cited from earlier work"}}, "data": [{"molecule": "CCN(CC)CCCC(C)Nc1c2ccc(Cl)cc2nc2ccc(OC)cc12", "note": "(centres unmarked) [Quinacrine]", "values": [{"measurement": "concentration causing cytotoxicity", "setting": "ScN2a cells", "result": "above 2 μM"}, {"measurement": "PrP^Sc level", "setting": "PrP^Sc in ScN2a cells", "result": "completely inhibited"}, {"measurement": "concentration causing cytotoxicity", "setting": "L2-2B1 cells", "result": "above 2 μM"}, {"measurement": "total PrP level", "setting": "total PrP in ScN2a cells", "result": "unaffected"}, {"measurement": "optimal concentration found to inhibit PrP^Sc formation", "setting": "PrP^Sc formation", "result": "below 4 μM"}]}]}
